Assay type in all cases: cell-based
In assay [1] the test system is P-388 (suspension culture of a lymphoid neoplasm from DBA/2 mouse). The assay can be described thus: Cytotoxic activity screening, P-388 cells. To be noted: Mus musculus, P388, 72 h, three days of incubation, approximate IC50. The procedure:
(§1) Cell Cultures. Cells were maintained in logarithmic phase of growth in Eagle's Minimum Essential Medium, with Earle's Balanced Salts, with 2.0 mM L-glutamine, with non-essential amino acids, without sodium bicarbonate (EMEM/neaa); supplemented with 10% Fetal Calf Serum (FCS), 10^−2 M sodium bicarbonate and 0.1 g/l penicillin-G+streptomycin sulfate.
(§2) A simple screening procedure has been carried out to determine and compare the antitumour activity of these compounds, using an adapted form of the method described by Bergeron et al (1984). The tumour cell line employed have been P-388 (suspension culture of a lymphoid neoplasm from DBA/2 mouse), A-549 (monolayer culture of a human lung carcinoma), HT-29 (monolayer culture of a human colon carcinoma) and MEL-28 (monolayer culture of a human melanoma).
P-388 cell were seeded into 16 mm wells at 1×10^4 cells per well in 1 ml aliquots of MEM 5FCS containing the indicated concentration of drug. A separate set of cultures without drug was seeded as control growth to ensure that cells remained in exponential phase of growth. All determinations were carried out in duplicate.

Assay [2] has as its system A-549 (monolayer culture of a human lung carcinoma). In words: Cytotoxic activity screening, A-549 cells. Conditions: Homo sapiens, A549, 72 h, three days of incubation, Crystal Violet, approximate IC50. The procedure: as §1, §2
(§3) A-549, HT-29 and MEL-28 were seeded into 16 mm wells at 2×10^4 cells per well in 1 ml aliquots of MEM 10FCS containing the indicated concentration of drug. A separate set of cultures without drug was seeded as control growth to ensure that cells remained in exponential phase of growth. All determinations were carried out in duplicate. After three days of incubation at 37° C., 10% CO2 in a 98% humid atmosphere, the wells were stained with 0.1% Crystal Violet. An approximately IC50 was determined by comparing the growth in wells with drug to the growth in wells control.

Assay [3] concerns HT-29 (monolayer culture of a human colon carcinoma). The assay can be described thus: Cytotoxic activity screening, HT-29 cells. To be noted: Homo sapiens, HT-29, 72 h, three days of incubation, Crystal Violet, approximate IC50. The procedure:
as §1, §2, §3

Assay [4] relates to MEL-28 (monolayer culture of a human melanoma). In words: Cytotoxic activity screening, MEL-28 cells. To be noted: SK-MEL-28, 72 h, three days of incubation, Crystal Violet, approximate IC50. The procedure:
as §1, §2, §3

32 molecules from US7420051B2, “Synthetic process for the manufacture of an ecteinaschidin compound” (Pharma Mar, S.A., priority 2000, dated 2008) can be followed below.

Molecules are shown by their SMILES.

Usually IC50 stands for the concentration needed to halve the response being measured.

As to `COC1=C(C)C(=O)C2=C(C1=O)[C@H](CNC(=O)[C@H](C)NC(=O)OC(C)(C)C)N1C(C2)[C@H]2c3c(cc(C)c(OC)c3O)C[C@@H]([C@@H]1C#N)N2C` (some centres unmarked), the IC50 in assay [1] is 0.15 µM; in assay [2], over 0.15 µM; in assay [3], 0.15 µM; in assay [4], over 0.15 µM.

As to `COCOc1c(OC)c(C)cc2c1[C@@H]1C3Cc4c(O)c(C)c5c(c4[C@H](CNC(=O)[C@H](C)NC(=O)OC(C)(C)C)N3[C@@H](C#N)[C@H](C2)N1C)OCO5` (some centres unmarked), the IC50 in assay [1], in assay [2], in assay [3] and in assay [4] was 1.4 µM throughout.

For `C=CCOc1c(C)c2c(c3c1CC1[C@H]4c5c(cc(C)c(OC)c5OCOC)C[C@@H]([C@H](C#N)N1[C@H]3CNC(=O)[C@H](C)NC(=O)OC(C)(C)C)N4C)OCO2` (some centres unmarked), the IC50 in assay [1], in assay [2], in assay [3] and in assay [4] was 0.01 µM in each case.

As for `C=CCOc1c(C)c2c(c3c1CC1[C@H]4c5c(cc(C)c(OC)c5O)C[C@@H]([C@H](C#N)N1[C@H]3CNC(=O)[C@H](C)N)N4C)OCO2` (some centres unmarked), the IC50 in assay [1] amounted to 0.08 µM; in assay [2] it was 0.16 µM; in assay [3], 0.01 µM; in assay [4] it was 0.16 µM.

As for `C=CCOc1c(C)c2c(c3c1CC1[C@H]4c5c(cc(C)c(OC)c5O)C[C@@H]([C@H](C#N)N1[C@H]3CNC(=O)[C@H](C)NC(=S)Nc1ccccc1)N4C)OCO2` (some centres unmarked), the 50% inhibitory concentration (IC50) in assay [1], in assay [2], in assay [3] and in assay [4] was 0.01 µM in each case.

Consider `C=CCOc1c(C)c2c(c3c1CC1[C@H]4c5c(cc(C)c(OC)c5O)C[C@@H]([C@H](C#N)N1[C@H]3CN)N4C)OCO2` (some centres unmarked), for which the concentration for half-maximal inhibition (IC50) in assay [1], in assay [2], in assay [3] and in assay [4] was 0.019 µM throughout.

For `COc1c(C)cc2c(c1O)[C@@H]1C3[C@@H]4SCC(N)C(=O)OC[C@@H](c5c6c(c(C)c(OC(C)=O)c54)OCO6)N3[C@@H](C#N)[C@H](C2)N1C` (some centres unmarked), the 50% inhibitory concentration (IC50) in assay [1], in assay [2], in assay [3] and in assay [4] was 0.008 µM each time.

Consider `COc1c(C)cc2c(c1O)[C@@H]1C3[C@@H]4SCC(=O)C(=O)OC[C@@H](c5c6c(c(C)c(OC(C)=O)c54)OCO6)N3[C@@H](C#N)[C@H](C2)N1C` (some centres unmarked), for which the half-inhibitory concentration (IC50) in assay [1], in assay [2], in assay [3] and in assay [4] was 0.01 µM in each case.

For `COC1=C(C)C(=O)C2=C(C1=O)C(CNC(C)=O)N1C(C2)[C@H]2c3c(cc(C)c(OC)c3O)C[C@@H]([C@@H]1C#N)N2C` (some centres unmarked), the IC50 in assay [1], in assay [2], in assay [3] and in assay [4] was 0.005 µM throughout.

Turning to `COc1c(C)cc2c(c1O)[C@@H]1C3Cc4c(OC(C)=O)c(C)c5c(c4[C@H](CNC(=O)/C=C/c4cccc(C(F)(F)F)c4)N3[C@@H](C#N)[C@H](C2)N1C)OCO5` (some centres unmarked), the IC50 in assay [1], in assay [2] and in assay [4] was 0.0001 µM throughout.

Regarding `C=CCOc1c(C)c2c(c3c1CC1[C@H]4c5c(cc(C)c(OC)c5OCOC)C[C@@H]([C@H](C#N)N1[C@H]3COC(CSCC1c3ccccc3-c3ccccc31)NC(=O)OC(C)(C)C)N4C)OCO2` (some centres unmarked), the concentration for half-maximal inhibition (IC50) in assay [2] and in assay [3] was over 1 µM in each case.

With `COCOc1c(OC)c(C)cc2c1[C@@H]1C3CC4(O)C(=O)C(C)=C5OCOC5=C4[C@H](COC(CSCC4c5ccccc5-c5ccccc54)NC(=O)OC(C)(C)C)N3[C@@H](C#N)[C@H](C2)N1C` (some centres unmarked), the half-maximal inhibitory concentration (IC50) in assay [2] and in assay [3] was over 1 µM throughout.

For `C=CCOc1c(C)c2c(c3c1CC1[C@H]4c5c(cc(C)c(OC)c5O)C[C@@H]([C@H](C#N)N1[C@H]3CO)N4C)OCO2` (some centres unmarked), the IC50 in assay [1], in assay [2], in assay [3] and in assay [4] was 0.19 µM in each case.

For `C=CCOc1c(C)c2c(c3c1CC1[C@H]4c5c(cc(C)c(OC)c5O)C[C@@H]([C@H](C#N)N1[C@H]3COC(CSCC1c3ccccc3-c3ccccc31)NC(=O)OC(C)(C)C)N4C)OCO2` (some centres unmarked), the IC50 in assay [2] and in assay [3] was 0.0055 µM throughout.

`C=CCOc1c(C)c2c(c3c1CC1[C@H]4c5c(cc(C)c(OC)c5OCOCCOC)C[C@@H]([C@H](C#N)N1[C@H]3COC(CSCC1c3ccccc3-c3ccccc31)NC(=O)OC(C)(C)C)N4C)OCO2` (some centres unmarked): the IC50 in assay [2] and in assay [3] was over 1 µM in each case.

For `COCCOCOc1c(OC)c(C)cc2c1[C@@H]1C3Cc4c(O)c(C)c5c(c4[C@H](COC(CSCC4c6ccccc6-c6ccccc64)NC(=O)OC(C)(C)C)N3[C@@H](C#N)[C@H](C2)N1C)OCO5` (some centres unmarked), the IC50 in assay [2] and in assay [3] was 0.01 µM each time.

`COCCOCOc1c(OC)c(C)cc2c1[C@@H]1C3CC4(O)C(=O)C(C)=C5OCOC5=C4[C@H](COC(CSCC4c5ccccc5-c5ccccc54)NC(=O)OC(C)(C)C)N3[C@@H](C#N)[C@H](C2)N1C` (some centres unmarked): the concentration for half-maximal inhibition (IC50) in assay [2] and in assay [3] was 0.051 µM throughout.

In the case of `COCCOCOc1c(OC)c(C)cc2c1[C@@H]1C3[C@@H]4SC[C@@H](NC(=O)OC(C)(C)C)C(=O)OC[C@@H](c5c6c(c(C)c(OC(C)=O)c54)OCO6)N3[C@@H](C#N)[C@H](C2)N1C` (some centres unmarked), in assay [2], inhibition was half-maximal at 0.012 µM (IC50).

For `C=CCOc1c(C)c2c(c3c1CC1[C@H]4c5c(cc(C)c(OC)c5O)C[C@@H]([C@H](C#N)N1[C@H]3COC(CSCC1c3ccccc3-c3ccccc31)NC(=O)OCc1ccccc1)N4C)OCO2` (some centres unmarked), the IC50 in assay [2] and in assay [3] was 0.11 µM each time.

For `C=CCOc1c(C)c2c(c3c1CC1[C@H]4c5c(cc(C)c(OC)c5OCOCCOC)C[C@@H]([C@H](C#N)N1[C@H]3COC(CSCC1c3ccccc3-c3ccccc31)NC(=O)OCc1ccccc1)N4C)OCO2` (some centres unmarked), the IC50 in assay [2] and in assay [3] was over 1 µM throughout.

On to `COCCOCOc1c(OC)c(C)cc2c1[C@@H]1C3CC4(O)C(=O)C(C)=C5OCOC5=C4[C@H](COC(CSCC4c5ccccc5-c5ccccc54)NC(=O)OCc4ccccc4)N3[C@@H](C#N)[C@H](C2)N1C` (some centres unmarked), for which the IC50 in assay [2] and in assay [3] was over 1 µM in each case.

Turning to `COCCOCOc1c(OC)c(C)cc2c1[C@@H]1C3[C@@H]4SC[C@H](NC(=O)OCc5ccccc5)C(=O)OC[C@@H](c5c6c(c(C)c(OC(C)=O)c54)OCO6)N3[C@@H](C#N)[C@H](C2)N1C` (some centres unmarked), the half-inhibitory concentration (IC50) in assay [2] and in assay [3] was 0.59 µM throughout.

On to `COc1c(C)cc2c(c1O)[C@@H]1C3[C@@H]4SC[C@H](NC(=O)OCc5ccccc5)C(=O)OC[C@@H](c5c6c(c(C)c(OC(C)=O)c54)OCO6)N3[C@@H](C#N)[C@H](C2)N1C` (some centres unmarked), for which the half-maximal inhibitory concentration (IC50) in assay [2] and in assay [3] was 0.0013 µM throughout.

`C=CCOC(=O)N[C@@H]1CS[C@@H]2c3c(OC(C)=O)c(C)c4c(c3[C@H](COC1=O)N1C2[C@H]2c3c(cc(C)c(OC)c3O)C[C@@H]([C@@H]1C#N)N2C)OCO4` (some centres unmarked) displayed a 50% inhibitory concentration (IC50) in assay [2] of 0.00015 µM.

Consider `C=CCOc1c(C)c2c(c3c1CC1[C@H]4c5c(cc(C)c(OC)c5O)C[C@@H]([C@H](C#N)N1[C@H]3CO[Si](C)(C)C(C)(C)C)N4C)OCO2` (some centres unmarked), for which the half-inhibitory concentration (IC50) in assay [2] and in assay [3] was over 1 µM throughout.

As for `C=CCOc1c(C)c2c(c3c1CC1[C@H]4c5c(cc(C)c(OC)c5OCOCCOC)C[C@@H]([C@H](C#N)N1[C@H]3CO[Si](C)(C)C(C)(C)C)N4C)OCO2` (some centres unmarked), the half-maximal inhibitory concentration (IC50) in assay [2] and in assay [3] was over 1 µM in each case.

For the molecule `COCCOCOc1c(OC)c(C)cc2c1[C@@H]1C3Cc4c(O)c(C)c5c(c4[C@H](CO[Si](C)(C)C(C)(C)C)N3[C@@H](C#N)[C@H](C2)N1C)OCO5` (some centres unmarked), the half-inhibitory concentration (IC50) in assay [2] and in assay [3] was over 1 µM in each case.

Regarding `COCCOCOc1c(OC)c(C)cc2c1[C@@H]1C3CC4(O)C(=O)C(C)=C5OCOC5=C4[C@H](CO[Si](C)(C)C(C)(C)C)N3[C@@H](C#N)[C@H](C2)N1C` (some centres unmarked), the IC50 in assay [2] and in assay [3] was over 1 µM each time.

`COCCOCOc1c(OC)c(C)cc2c1[C@@H]1C3CC4(O)C(=O)C(C)=C5OCOC5=C4[C@H](CO)N3[C@@H](C#N)[C@H](C2)N1C` (some centres unmarked): the concentration for half-maximal inhibition (IC50) in assay [2] and in assay [3] was over 1 µM each time.

As to `C=CCOC(=O)NC(CSCC1c2ccccc2-c2ccccc21)OC[C@H]1C2=C3OCOC3=C(C)C(=O)C2(O)CC2[C@H]3c4c(cc(C)c(OC)c4OCOCCOC)C[C@@H]([C@H](C#N)N21)N3C` (some centres unmarked), the IC50 in assay [2] and in assay [3] was over 1 µM throughout.

Take `C=CCOC(=O)N[C@@H]1CS[C@@H]2c3c(OC(C)=O)c(C)c4c(c3[C@H](COC1=O)N1C2[C@H]2c3c(cc(C)c(OC)c3OCOCCOC)C[C@@H]([C@@H]1C#N)N2C)OCO4` (some centres unmarked): the IC50 in assay [2] and in assay [3] was 0.012 µM in each case.

Take `COCCOc1c(OC)c(C)cc2c1[C@@H]1C3[C@@H]4SC[C@H](NC(=O)OCc5ccccc5)C(=O)OC[C@@H](c5c6c(c(C)c(OC(C)=O)c54)OCO6)N3[C@@H](C#N)[C@H](C2)N1C` (some centres unmarked): the IC50 in assay [2] and in assay [3] was 0.062 µM throughout.
